According to PubChem BioAssay AID328 (DTP/NCI, 2004):
Where “and” joins values, the source holds several entries; their conditions need not be identical. Equal values may be shown once. Toxic doses and inconclusive results are not listed.

Test system: BDF1 mice, P388 leukemia ip, median survival T/C
Experiment: NCI In Vivo Anticancer Drug Screen. Data for tumor model P388 Leukemia (intraperitoneal) in B6D2F1 (BDF1) mice
Settings: endpoint: median survival time, higher = longer survival
In short: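 Each value expresses how treatment altered survival: treated-mouse outcome over vehicle-mouse outcome, both groups bearing the transplanted tumour.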

[1] = dose: 25.0 mg/kg/injection, schedule: Q01DX009 (ip), vehicle: saline with Tween-80
[2] = dose: 50.0 mg/kg/injection, schedule: Q01DX009 (ip), vehicle: saline with Tween-80
[3] = dose: 100.0 mg/kg/injection, schedule: Q01DX009 (ip), vehicle: Klucel (hydroxypropylcellulose) (HPC)
[4] = dose: 200.0 mg/kg/injection, schedule: Q01DX009 (ip), vehicle: Klucel (hydroxypropylcellulose) (HPC)
[5] = dose: 400.0 mg/kg/injection, schedule: Q01DX009 (ip), vehicle: Klucel (hydroxypropylcellulose) (HPC)
[6] = dose: 100.0 mg/kg/injection, schedule: Q01DX009 (ip), vehicle: saline with Tween-80
[7] = dose: 200.0 mg/kg/injection, schedule: Q01DX009 (ip), vehicle: saline with Tween-80
[8] = dose: 100.0 mg/kg/injection, schedule: Q04DX003 (ip), vehicle: Klucel (hydroxypropylcellulose) (HPC)
[9] = dose: 200.0 mg/kg/injection, schedule: Q04DX003 (ip), vehicle: Klucel (hydroxypropylcellulose) (HPC)
[10] = dose: 400.0 mg/kg/injection, schedule: Q04DX003 (ip), vehicle: Klucel (hydroxypropylcellulose) (HPC)

CC(=O)OCC(=O)[C@@]1(O)CC[C@H]2[C@@H]3C[C@H](F)C4=CC(=O)CC[C@]4(C)[C@H]3[C@@H](O)C[C@@]21C
T/C (dose: 12.5 mg/kg/injection, schedule: Q01DX009 (ip), vehicle: saline with Tween-80): 109 % of control
T/C [1]: 118 % of control
T/C [2]: 118 % of control

CCOC(=O)C(C)NC(=O)N(C)C12CC3CC(CC(C3)C1)C2 (centres undefined)
T/C [3]: 113 % of control
T/C [4]: 117 % of control
T/C [5]: 119 % of control

CC1(C)N=C(N)N=C(N)N1c1ccc(C(=O)CCl)cc1
T/C (dose: 10.0 mg/kg/injection, schedule: Q01DX009 (ip), vehicle: saline): 108 % of control
T/C (dose: 20.0 mg/kg/injection, schedule: Q01DX009 (ip), vehicle: saline): 108 % of control
T/C (dose: 40.0 mg/kg/injection, schedule: Q01DX009 (ip), vehicle: saline): 118 % of control

CCOP(=O)(O)OCC.[Al]
T/C [2]: 100 % of control
T/C [6]: 103 % of control
T/C [7]: 103 % of control

COc1ccc(C2CC(c3ccccc3O)=NC(c3ccc(OC)cc3)N2)cc1 (centres undefined)
T/C [1]: 91 % of control
T/C [2]: 94 % of control
T/C [6]: 92 % of control

CCOC(=O)CCC(NC(=O)N(CCCl)CCCl)C(=O)OCC (centres undefined)
T/C (dose: 132.0 mg/kg/injection, schedule: Q04DX003 (ip), vehicle: saline with Tween-80): 175 % of control
T/C (dose: 200.0 mg/kg/injection, schedule: Q04DX003 (ip), vehicle: saline with Tween-80): 204 % of control
T/C (dose: 300.0 mg/kg/injection, schedule: Q04DX003 (ip), vehicle: saline with Tween-80): 183 % of control

c1ccc(CNCCOB(OCCNCc2ccccc2)OCCNCc2ccccc2)cc1
T/C [8]: 100 % of control
T/C [9]: 104 % of control
T/C [10]: 100 % of control

C=C1CC(OC(=O)c2ccc([N+](=O)[O-])cc2)C1
T/C [2]: 111 % of control
T/C [6]: 111 % of control
T/C [7]: 90 % of control

CCCCCCC(=O)/C=C/c1cccc(O)c1
T/C [2]: 104 % of control
T/C [6]: 104 % of control
T/C [7]: 95 % of control

COC(=O)C1=COC(C)C2CN3CCc4c([nH]c5ccccc45)C3CC12 (centres undefined)
T/C (dose: 20.0 mg/kg/injection, schedule: Q01DX010 (ip), vehicle: saline): 90 % of control
T/C (dose: 40.0 mg/kg/injection, schedule: Q01DX010 (ip), vehicle: saline): 90 % of control
T/C (dose: 160.0 mg/kg/injection, schedule: Q01DX010 (ip), vehicle: saline): 90 % of control

Nc1ncc([N+](=O)[O-])c(Cl)n1
T/C [2]: 103 % of control
T/C [6]: 111 % of control

CC(=O)OC1C(=O)C(C)(C)CSCC1(C)C (centres undefined)
T/C [3]: 104 % of control
T/C [4]: 95 % of control
T/C [5]: 104 % of control

Nc1ncnc2c1nnn2C1OC(CO)C(O)C1O (centres undefined)
T/C (dose: 10.0 mg/kg/injection, schedule: Q01DX009 (ip), vehicle: Klucel (hydroxypropylcellulose) (HPC)): 150 % of control
T/C (dose: 15.0 mg/kg/injection, schedule: Q01DX009 (ip), vehicle: Klucel (hydroxypropylcellulose) (HPC)): 160 % of control
T/C (dose: 18.0 mg/kg/injection, schedule: Q01DX009 (ip), vehicle: Klucel (hydroxypropylcellulose) (HPC)): 161 % of control
T/C (dose: 24.0 mg/kg/injection, schedule: Q01DX009 (ip), vehicle: Klucel (hydroxypropylcellulose) (HPC)): 96 % of control
T/C (dose: 27.0 mg/kg/injection, schedule: Q01DX009 (ip), vehicle: Klucel (hydroxypropylcellulose) (HPC)): 170 % of control
T/C (dose: 28.0 mg/kg/injection, schedule: Q01DX009 (ip), vehicle: Klucel (hydroxypropylcellulose) (HPC)): 170 % of control
T/C (dose: 35.0 mg/kg/injection, schedule: Q01DX009 (ip), vehicle: Klucel (hydroxypropylcellulose) (HPC)): 99 % of control
T/C (dose: 40.0 mg/kg/injection, schedule: Q01DX009 (ip), vehicle: Klucel (hydroxypropylcellulose) (HPC)): 104 % of control
T/C (dose: 42.0 mg/kg/injection, schedule: Q01DX009 (ip), vehicle: Klucel (hydroxypropylcellulose) (HPC)): 170 % of control
T/C (dose: 53.0 mg/kg/injection, schedule: Q01DX009 (ip), vehicle: Klucel (hydroxypropylcellulose) (HPC)): 107 % of control
T/C (dose: 60.0 mg/kg/injection, schedule: Q01DX009 (ip), vehicle: Klucel (hydroxypropylcellulose) (HPC)): 91 % of control
T/C (dose: 63.0 mg/kg/injection, schedule: Q01DX009 (ip), vehicle: Klucel (hydroxypropylcellulose) (HPC)): 115 % of control
T/C (dose: 79.0 mg/kg/injection, schedule: Q01DX009 (ip), vehicle: Klucel (hydroxypropylcellulose) (HPC)): 102 % of control

CC1OCC2OC(C)OC(C(COC(c3ccccc3)(c3ccccc3)c3ccccc3)OS(C)(=O)=O)C2O1 (centres undefined)
T/C (dose: 100.0 mg/kg/injection, schedule: Q04DX003 (ip), vehicle: saline): 100 % of control
T/C (dose: 200.0 mg/kg/injection, schedule: Q04DX003 (ip), vehicle: saline): 104 % of control
T/C (dose: 400.0 mg/kg/injection, schedule: Q04DX003 (ip), vehicle: saline): 108 % of control

CCN(CC)CC(C)Nc1ccc(C)c2sc3ccccc3c(=O)c12 (centres undefined)
T/C (dose: 33.0 mg/kg/injection, schedule: Q04DX003 (ip), vehicle: saline sonified): 118 % of control
T/C (dose: 44.0 mg/kg/injection, schedule: Q01DX009 (ip), vehicle: saline): 159 % of control
T/C (dose: 66.0 mg/kg/injection, schedule: Q01DX009 (ip), vehicle: saline): 200 % of control and 209 % of control
T/C (dose: 100.0 mg/kg/injection, schedule: Q01DX009 (ip), vehicle: saline): 190 % of control
T/C (dose: 112.5 mg/kg/injection, schedule: Q04DX003 (ip), vehicle: saline sonified): 154 % of control
T/C (dose: 300.0 mg/kg/injection, schedule: Q04DX003 (ip), vehicle: saline sonified): 163 % of control

CCCCCCCCCCCCCCCCCC(N)=O
T/C [8]: 90 % of control
T/C [9]: 95 % of control
T/C [10]: 100 % of control

CCCCCCCCSC(=S)N(C)NC(=O)c1ccccn1
T/C [2]: 99 % of control
T/C [6]: 105 % of control

COc1cc2c(c(OC)c1OC)-c1ccc(OC)c(=O)cc1[C@@H](NC=O)CC2
T/C (dose: 0.05 mg/kg/injection, schedule: Q01DX009 (ip), vehicle: Klucel (hydroxypropylcellulose) (HPC)): 120 % of control
T/C (dose: 0.09 mg/kg/injection, schedule: Q01DX009 (ip), vehicle: Klucel (hydroxypropylcellulose) (HPC)): 160 % of control
T/C (dose: 0.19 mg/kg/injection, schedule: Q01DX009 (ip), vehicle: Klucel (hydroxypropylcellulose) (HPC)): 160 % of control
T/C (dose: 0.37 mg/kg/injection, schedule: Q01DX010 (ip), vehicle: saline): 154 % of control
T/C (dose: 0.38 mg/kg/injection, schedule: Q01DX009 (ip), vehicle: Klucel (hydroxypropylcellulose) (HPC)): 190 % of control
T/C (dose: 0.38 mg/kg/injection, schedule: Q01DX010 (ip), vehicle: saline): 158 % of control
T/C (dose: 0.75 mg/kg/injection, schedule: Q01DX009 (ip), vehicle: Klucel (hydroxypropylcellulose) (HPC)): 100 % of control
T/C (dose: 0.75 mg/kg/injection, schedule: Q01DX010 (ip), vehicle: saline): 170 % of control
T/C (dose: 6.3 micrograms/kg/injection, schedule: Q01DX010 (ip), vehicle: saline): 100 % of control
T/C (dose: 12.0 micrograms/kg/injection, schedule: Q01DX009 (ip), vehicle: Klucel (hydroxypropylcellulose) (HPC)): 100 % of control
T/C (dose: 12.5 micrograms/kg/injection, schedule: Q01DX010 (ip), vehicle: saline): 88 % of control
T/C (dose: 23.0 micrograms/kg/injection, schedule: Q01DX009 (ip), vehicle: Klucel (hydroxypropylcellulose) (HPC)): 120 % of control
T/C (dose: 25.0 micrograms/kg/injection, schedule: Q01DX010 (ip), vehicle: saline): 111 % of control
T/C (dose: 50.0 micrograms/kg/injection, schedule: Q01DX010 (ip), vehicle: saline): 111 % of control

NC(N)=Nc1cccc(C(F)(F)F)c1
T/C [2]: 94 % of control
T/C [6]: 100 % of control
T/C [7]: 109 % of control

CC1CCC2CON(C(C)(C)C)C2C1 (centres undefined)
T/C [2]: 100 % of control
T/C [6]: 100 % of control

CC(C)NC(=O)OCc1c(COC(=O)NC(C)C)c(-c2ccc(Cl)c(Cl)c2)n2c1CCC2
T/C (dose: 12.5 mg/kg/injection, schedule: Q01DX009 (ip), vehicle: other): 204 % of control
T/C (dose: 25.0 mg/kg/injection, schedule: Q01DX009 (ip), vehicle: other): 214 % of control

CCOC(=O)Nc1cc2c(c(N)n1)N=C(CN(C)c1ccccc1)CN2
T/C (dose: 12.5 mg/kg/injection, schedule: Q01DX001 (ip), vehicle: Klucel (hydroxypropylcellulose) (HPC)): 123 % of control
T/C (dose: 50.0 mg/kg/injection, schedule: Q01DX001 (ip), vehicle: Klucel (hydroxypropylcellulose) (HPC)): 164 % of control
T/C (dose: 100.0 mg/kg/injection, schedule: Q01DX001 (ip), vehicle: Klucel (hydroxypropylcellulose) (HPC)): 211 % of control

OCCN(CCO)C(CO)(CO)CO
T/C (dose: 50.0 mg/kg/injection, schedule: Q01DX005 (ip), vehicle: saline): 100 % of control
T/C (dose: 100.0 mg/kg/injection, schedule: Q01DX005 (ip), vehicle: saline): 98 % of control
T/C (dose: 200.0 mg/kg/injection, schedule: Q01DX005 (ip), vehicle: saline): 104 % of control
